{"source": "patent US5561131A", "about": "“Defaunation method” (Mallinckrodt Veterinary, Inc., priority 1991, dated 1996)", "origin": "cited, not measured here", "conditions": "The Pesticide Manual, 9th Ed. 1991; cited from earlier work", "data": [{"smiles": "Clc1nc(Cl)nc(Nc2ccccc2Cl)n1", "note": "[Compound 37, 2,4-dichloro-6-(2-chloroanilino)-1,3,5-triazine]", "values": [{"measurement": "LD50", "value": "> 4000", "unit": "mg/kg"}]}]}
